In patent US20100009970A1, “COMPOSITIONS AND METHODS FOR TREATMENT OF VIRAL DISEASES” (Combinatorx (Singapore) Pte. Ltd., priority 2008, published 2010):
“And” between values parts separate entries of the source, which are not always exact repeats. Equal entries are not always repeated. Structures can show the parent of a compound that is named as a salt. Where two headings read alike, the source gives them in different places.

Legend:
[1] = system: Huh7 cells expressing a subgenomic RNA replicon of Con1 (genotype 1b) sequence origin
in vitro = conditions: human
[2] = system: Huh7 cells expressing a subgenomic RNA replicon of Con1 (genotype 1b) sequence origin; assay: microbe, parasite or virus in culture; conditions: Hepatitis C virus
[3] = GETYPE1B, Huh-7, 72 h, read-out: Max Effect @CC30 (inhibition)
[4] = Huh-7, 48 h, read-out: Max Effect
[5] = Huh-7, read-out: IC50 (uM) [SG]
[6] = Huh-7, read-out: Max Effect@CC30 (inhibition)

SMILES: CN[C@H]1CC[C@@H](c2ccc(Cl)c(Cl)c2)c2ccccc21.Cl [(1R,4S) Sertraline Hydrochloride]
- Max Effect@CC30 (inhibition) [1]: 90.8 ± 1.6%
- IC90 ([1]; Hydrochloride): 12.1 ± 0.83 µM
- CC50 (Huh7 parental cells): 14.2 ± 0.16 µM

SMILES: CNC1CCC(c2ccccc2OC)c2ccccc21 (stereo not shown) [Sertraline B-ring Ortho Methoxy, 4-(2-methoxyphenyl)-N-methyl-1,2,3,4-tetrahydronaphthalen-1-amine]
- CC50 (Huh7 parental cells; human): > 50 µM
- CC50 (in vitro; CC50 (uM)): 58.6 µM
- CC50 (in vitro; CC50 (uM) [SG]): 58.6 µM

SMILES: CN(C)[C@H]1CC[C@@H](c2ccc(Cl)c(Cl)c2)c2ccc(C(=O)NC3CC3)cc21 [N,N-Dimethyl Sertraline A-Ring Reverse Cyclopropane Carboxam] [(5S,8S)—N-cyclopropyl-5-(3,4-dichlorophenyl)-8-(dimethylamino)-5,6,7,8-tetrahydronaphthalene-2-carboxamide]
- IC50 ([1]; read-out: IC50 (uM) [SG]): 8.63 µM
- CC50 (Huh7 parental cells; human): 18.2 µM

SMILES: Cl.N[C@H]1CC[C@@H](c2ccc(Cl)c(Cl)c2)c2ccccc21 [(1S,4S)-Desmethyl Sertraline, Hydrochloride]
- IC50 [1]: 5.35 µM
- Max Effect [1]: 98%
- Synergy Score [1]: 2.14
- TI (CC50/IC50) [1]: 1.247
- CC50 (Huh7 parental cells): 6.68 µM

SMILES: N[C@@H]1CC[C@H](c2ccc(Cl)c(Cl)c2)c2ccccc21 [(1R,4R)-Desmethyl Sertraline, (1R,4R)-4-(3,4-dichlorophenyl)-1,2,3,4-tetrahydronaphthalen-1-amine]
- Synergy Score [1]: 0.57
- TI (CC50/IC50) [1]: >1.206
- CC50 (in vitro; CC50): > 8.83 µM
- CC50 (in vitro; CC50 (uM)): 8.1 µM
- CC50 (in vitro; CC50 (uM) [SG]): 8.1 µM
- Emax [2, 3]: 0%
- IC50 ([2]; Huh-7, 48 h): 7.32 µM
- Emax [2, 4]: 81%
- IC50 ([2]; Huh-7, 72 h): 8.7 µM
- IC50 [2, 5]: 8.7 µM
- Emax [2, 6]: 0%

SMILES: COC1CC[C@@H](c2ccc(Cl)c(Cl)c2)c2ccccc21 (stereo partly drawn) [Methoxy 4S-Sertraline]
- IC50 [1]: 26.4 µM
- IC90 [1]: 46.1 µM and 46.9 µM
- Max Effect@CC30 (inhibition) [1]: 93.98% and 47.76%
- CC50 (in vitro; CC50 (uM)): > 50 µM
- IC50 ([2]; Huh-7): 22.7 µM

SMILES: CN[C@H]1CC[C@@H](c2ccc(Cl)c(Cl)c2)c2ccccc21 [Sertraline HCL, Sertraline HCl, reference compound]
- CC50 (Huh7 parental cells; human): 11.3 µM
- CC50 at 72 h (in vitro; CC50 (uM)): 11.8 ± 2.09 µM
- CC50 (in vitro; CC50 (uM) [SG]): 11.7 ± 2.03 µM
- Emax [2, 3]: 62 ± 11.2%
- Emax [2, 6]: 62.6 ± 21.5%

SMILES: CN[C@H]1CC[C@@H](c2ccc(Cl)c(Cl)c2)c2ccccc21 [Sertraline (e.g., hydrochloride), Sertraline, reference compound]
- Synergy Score [1]: 2.76
- CC50 at 48 h (in vitro; CC50): 8.83 µM
- Emax [2, 4]: 99%

SMILES: COC1CC[C@@H](c2ccc(Cl)c(Cl)c2)c2ccccc21 (single isomer, unassigned) [Methoxy 4S-Sertraline-P1]
- Max Effect@CC30 (inhibition) [1]: 93.98%
- CC50 (in vitro; CC50 (uM) [SG]): > 50 µM
- IC90 ([2]; Huh-7): 46.1 µM
- IC50 [2, 5]: 22.7 µM

SMILES: CN[C@H]1CC[C@@H](c2ccc(Cl)c(Cl)c2)c2ccc(CN)cc21 [Sertraline A-Ring Methanamine, (1S,4S)-7-(aminomethyl)-4-(3,4-dichlorophenyl)-N-methyl-1,2,3,4-tetrahydronaphthalen-1-amine]
- IC50 ([1]; read-out: IC50 (uM) [SG]): 1.67 µM
- CC50 (Huh7 parental cells; human): 3.68 µM
- CC50 (in vitro; CC50 (uM)): 3.7 µM
- CC50 (in vitro; CC50 (uM) [SG]): 3.7 µM
- IC50 ([2]; Huh-7): 1.6 µM
- IC90 ([2]; Huh-7): 3.28 µM
- IC50 [2, 5]: 1.59 µM
- Emax ([2]; Huh-7, read-out: Max Effect @CC30 (inhibition)): 85.9%
- Emax [2, 6]: 85.9%
- Emax ([2]; Huh-7, read-out: Max effect @CC30 (%)): 85.9%
- IC50 ([2]; Huh-7, read-out: SA IC50 (uM)): 1.59 µM
